# Data taken from PubChem BioAssay AID1919005 (Molecular Pharmacology Branch, DTP, NCI, 2023).
# Tested on: 855422-203-R-J1-PDC complex spheroid growth
# Test: Anticancer human tumor 855422-203-R-J1-PDC patient-derived bladder carcinoma cell line growth inhibition [AhR]
# Settings: for IC50: curve of first compound; for viability, T/C: stronger effect = lower value
# Summary of the method: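 Complex tumor spheroids co-cultured with HUVEC and human MSC stroma; AhR antagonists tested in combination with standard-of-care and investigational agents. Top concentration at or near clinical Cmax (else 10 microM), half-log dilutions; growth expressed as percent test/control.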
# [1] = second compound 0.1 µM, first compound 0.0316 µM
# [2] = second compound 0.1 µM, first compound 0.1 µM
# [3] = second compound 0.1 µM, first compound 0.316 µM
# [4] = second compound 0.1 µM, first compound 1 µM
# [5] = second compound 0.1 µM, first compound 3.16 µM
# [6] = second compound 0.1 µM, first compound 10 µM
# [7] = second compound 0.316 µM, first compound 0.0316 µM
# [8] = second compound 0.316 µM, first compound 0.1 µM
# [9] = second compound 0.316 µM, first compound 0.316 µM
# [10] = second compound 0.316 µM, first compound 1 µM
# [11] = second compound 0.316 µM, first compound 3.16 µM
# [12] = second compound 0.316 µM, first compound 10 µM
# [13] = second compound 1 µM, first compound 0.0316 µM
# [14] = second compound 1 µM, first compound 0.1 µM
# [15] = second compound 1 µM, first compound 0.316 µM
# [16] = second compound 1 µM, first compound 1 µM
# [17] = second compound 1 µM, first compound 3.16 µM
# [18] = second compound 1 µM, first compound 10 µM
# [19] = second compound 3.16 µM, first compound 0.0316 µM
# [20] = second compound 3.16 µM, first compound 0.1 µM
# [21] = second compound 3.16 µM, first compound 0.316 µM
# [22] = second compound 3.16 µM, first compound 1 µM
# [23] = second compound 3.16 µM, first compound 3.16 µM
# [24] = second compound 3.16 µM, first compound 10 µM
# [25] = second compound 10 µM, first compound 0.0316 µM
# [26] = second compound 10 µM, first compound 0.1 µM
# [27] = second compound 10 µM, first compound 0.316 µM
# [28] = second compound 10 µM, first compound 1 µM
# [29] = second compound 10 µM, first compound 3.16 µM
# [30] = second compound 10 µM, first compound 10 µM
# 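Further: spheroids exposed to agents for seven days before readout.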
# 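Wherever viability, T/C is given: percent of DMSO vehicle control luminescence viability.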
SMILES,IC50 (second compound 0.1 µM),IC50 (second compound 0.316 µM),IC50 (second compound 1 µM),IC50 (second compound 3.16 µM),IC50 (second compound 10 µM),"viability, T/C [1]","viability, T/C [2]","viability, T/C [3]","viability, T/C [4]","viability, T/C [5]","viability, T/C [6]","viability, T/C [7]","viability, T/C [8]","viability, T/C [9]","viability, T/C [13]","viability, T/C [14]","viability, T/C [19]","viability, T/C [20]","viability, T/C [25]","viability, T/C [26]",further results
CC(C)c1c(-c2ccccc2)nc2c(C#N)c[nH]n2c1=O + CC(CO)NC(=O)c1cc(-c2ccc(Cl)cc2)nn(-c2cnn(C)c2)c1=O,> 10 µM,> 10 µM,> 10 µM,> 10 µM,> 10 µM,103%,100%,95.2%,85.6%,92.4%,91.8%,93.1%,105%,95.8%,103%,106%,97.3%,106%,86.9%,90.9%,"viability, T/C [10]: 105%; viability, T/C [11]: 98.8%; viability, T/C [12]: 92%; viability, T/C [15]: 104%; viability, T/C [16]: 99.8%; viability, T/C [17]: 99.6%; viability, T/C [18]: 96.5%; viability, T/C [21]: 99.2%; viability, T/C [22]: 93.6%; viability, T/C [23]: 91.3%; viability, T/C [24]: 110%; viability, T/C [27]: 91.7%; viability, T/C [28]: 98%; viability, T/C [29]: 93%; viability, T/C [30]: 92.1%"
COc1cc(Nc2ncc3c(n2)-c2ccc(Cl)cc2C(c2c(F)cccc2OC)=NC3)ccc1C(=O)O + Cc1ccccc1N=Nc1ccc(NC(=O)c2ccnn2C)c(C)c1,> 10 µM,> 10 µM,> 10 µM,> 10 µM,> 10 µM,109%,108%,88.9%,85.1%,77.7%,73%,105%,109%,93.4%,114%,113%,105%,106%,87.8%,88.8%,"viability, T/C [10]: 92.8%; viability, T/C [11]: 85.9%; viability, T/C [12]: 68.7%; viability, T/C [15]: 98.7%; viability, T/C [16]: 84.3%; viability, T/C [17]: 78.1%; viability, T/C [18]: 76.8%; viability, T/C [21]: 87.3%; viability, T/C [22]: 79.4%; viability, T/C [23]: 79.5%; viability, T/C [24]: 68.3%; viability, T/C [27]: 81.7%; viability, T/C [28]: 89.7%; viability, T/C [29]: 79.2%; viability, T/C [30]: 71.2%"
Cn1ncnc1C1c2n[nH]c(=O)c3cc(F)cc(c23)NC1c1ccc(F)cc1 (stereo not given) + CC(CO)NC(=O)c1cc(-c2ccc(Cl)cc2)nn(-c2cnn(C)c2)c1=O,> 0.1 µM,> 0.1 µM,> 0.1 µM,> 0.1 µM,> 0.1 µM,105%,84.9%,–,–,–,–,100%,89.3%,–,99%,107%,105%,110%,106%,94%,"viability, T/C (second compound 0.1 µM, first compound 0.000316 µM): 93.4%; viability, T/C (second compound 0.1 µM, first compound 0.001 µM): 96.2%; viability, T/C (second compound 0.1 µM, first compound 0.00316 µM): 99.3%; viability, T/C (second compound 0.1 µM, first compound 0.01 µM): 92.4%; viability, T/C (second compound 0.316 µM, first compound 0.000316 µM): 96.4%; viability, T/C (second compound 0.316 µM, first compound 0.001 µM): 104%; viability, T/C (second compound 0.316 µM, first compound 0.00316 µM): 98.6%; viability, T/C (second compound 0.316 µM, first compound 0.01 µM): 107%; viability, T/C (second compound 1 µM, first compound 0.000316 µM): 109%; viability, T/C (second compound 1 µM, first compound 0.001 µM): 105%; viability, T/C (second compound 1 µM, first compound 0.00316 µM): 96.2%; viability, T/C (second compound 1 µM, first compound 0.01 µM): 109%; viability, T/C (second compound 3.16 µM, first compound 0.000316 µM): 101%; viability, T/C (second compound 3.16 µM, first compound 0.001 µM): 107%; viability, T/C (second compound 3.16 µM, first compound 0.00316 µM): 102%; viability, T/C (second compound 3.16 µM, first compound 0.01 µM): 103%; viability, T/C (second compound 10 µM, first compound 0.000316 µM): 105%; viability, T/C (second compound 10 µM, first compound 0.001 µM): 102%; viability, T/C (second compound 10 µM, first compound 0.00316 µM): 95.4%; viability, T/C (second compound 10 µM, first compound 0.01 µM): 103%"
